Reference: patent US20050267114A1, “Triazaspiro[5.5]undecane derivatives and drugs comprising the same as the active ingredient” (priority 2002, published 2005)
Counter-ions that a name gives are not always drawn.

Biological target: T1, human CCR5 (Homo sapiens, UniProt P51681)
T1 construct: expressed in transfected cells; host or cells: CHO-dhfr(-) cells stably transfected with plasmid pEF-BOS-bsr/hCCR5
Experiment: Inhibition test on the binding of RANTES to CCR5 (RANTES-induced transient increase of Ca ion)
Format: cell-based
Settings: human RANTES 10 nM; CCR5/CHO cell; Ca2+ transient increase
Description: (1) Isolation of Human CCR5 Gene
Human placental cDNA was prepared using Marathon cDNA amplification kit (Clontech). PCR primers hCCR5Xbal-F1:
Using the human placental cDNA as the template and using Ex Taq (Takara), PCR reaction (2 minutes at 95° C.→(30 seconds at 95° C., 45 seconds at 60° C., 1 minute at 72° C.)×35 times) was carried out. The thus amplified PCR product was subjected to a 1% agarose gel electrophoresis, purified using QIAquick Gel Extraction Kit (QUIAGEN) and then digested with a restriction enzyme XbaI. The digested fragments were ligated to an expression vector pEF-BOS-bsr using DNA Ligation Kit Ver. 2 (Takara) and transformed into Escherichia coli DH5a. […]
The thus established human CCR5 stably over-expressing CHO cell (CCR5/CHO cell) was suspended in Ham's F-12 medium containing FBS (10%) and dispensed in […] portions into a 96 well plate. […] Transient increase in the intracellular Ca^2+ concentration induced by the human RANTES was measured using a Ca^2+ detector for 96 well use (Hamamatsu Photonics), and inhibition ratio (%) of the test compound was calculated by the following calculation formula. Inhibition ratio=(Ec−Ea)/Ec×100 • Ec: measured value of Ca^2+ transient increase by RANTES • Ea: measured value of Ca^2+ transient increase by RANTES when a test compound was added.

T1 sequence (P51681 whole entry): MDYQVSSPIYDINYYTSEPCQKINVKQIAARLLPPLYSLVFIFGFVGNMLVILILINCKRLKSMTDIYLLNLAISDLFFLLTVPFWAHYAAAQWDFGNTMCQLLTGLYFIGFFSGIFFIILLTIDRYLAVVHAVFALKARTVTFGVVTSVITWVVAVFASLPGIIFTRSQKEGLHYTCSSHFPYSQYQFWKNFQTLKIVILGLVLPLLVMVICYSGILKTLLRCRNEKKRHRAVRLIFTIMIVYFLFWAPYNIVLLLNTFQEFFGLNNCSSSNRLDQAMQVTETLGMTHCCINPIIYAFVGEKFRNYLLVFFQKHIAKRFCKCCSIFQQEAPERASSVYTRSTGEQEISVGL

IC50: 10 nM
Compound: CCCCN1C(=O)[C@@H]([C@H](O)C(CC)CC)NC(=O)C12CCN(Cc1ccc(Cc3ccc(C(=O)NC)cc3Cl)cc1)CC2 [Example 3(179), (3R)-1-butyl-2,5-dioxo-3-((1R)-1-hydroxy-2-ethylbutyl)-9-(4-(4-methylaminocarbonyl-2-chlorophenylmethyl)phenylmethyl)-1,4,9-triazaspiro[5.5]undecane hydrochloride]
